# Measurements published in patent EP2495244A1, “Piperidinyl benzoimidazole derivatives as mPGEs-1 inhibitors” (NovaSaid AB, priority 2011, dated 2012).
# What was measured:
# cellular PGE2 synthesis = experiment: A549 cell-assay (PGE2 content of supernatant by EIA); type: cell-based; conditions: Homo sapiens, A549 lung carcinoma cells, TNFalfa (5 ng/mL) and IL-1beta (5 ng/mL) 16 hours, 30 minutes with test compound, 10 µM arachidonic acid 30 minutes, arithmetic mean values
# Protocol: Prostaglandin detection kits were purchased from Cayman Chemicals and used according to the instruction of the manufacturer.
# A549 lung carcinoma cells, seeded at a density of 10, 000 cells/well, were grown in 96 well tissue culture plates. TNFalfa (5 ng/mL) and IL-1beta (5 ng/mL) were added and the cells were incubated for 16 hours. Cells were washed in PBS and test compounds at the appropriate concentration in HBSS/0.1% BSA were added. After 30 minutes of incubation with test compounds, 10 µM arachidonic acid was added and cells were further incubated for 30 minutes. Supernatant was collected and analyzed for PGE2 content by EIA according to manufacturer's instructions. Table 1. Inhibition of human mPGEs-1 and cellular PGE2 synthesis.
# human mPGEs-1 = molecular target: T1, human mPGEs-1 (Homo sapiens, UniProt O14684); experiment: Thiobarbituric acid assay (TBA-MDA assay, malondialdehyde assay) for inhibition of mPGEs-1
# T1 sequence (O14684 1-152): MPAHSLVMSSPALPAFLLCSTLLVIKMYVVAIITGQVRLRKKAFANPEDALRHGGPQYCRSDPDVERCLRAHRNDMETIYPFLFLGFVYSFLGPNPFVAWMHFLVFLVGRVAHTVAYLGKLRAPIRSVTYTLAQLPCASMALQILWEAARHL
Structure (SMILES),IC50 (cellular PGE2 synthesis) [nM],IC50 (human mPGEs-1) [nM]
"Cc1cc2nc(N3CCC(C(=O)N[C@@H]4CCOC4)CC3)n(-c3ccc4cc(Cl)ccc4n3)c2cc1Cl [Example 9, (R)-1-(6-Chloro-1-(6-chloroquinolin-2-yl)-5-methyl-1H-benzo[d]imidazol-2-yl)-N-(tetrahydrofuran-3-yl)piperidine-4-carboxamide]",67,51
"Cc1cc2nc(N3CCC(C(=O)N[C@@H]4CCOC4)CC3)n(-c3ccc4ncccc4c3)c2cc1C [Example 15, (R)-1-(5,6-dimethyl-1-(quinolin-6-yl)-1H-benzo[d]imidazol-2-yl)-N-(tetrahydrofuran-3-yl)piperidine-4-carboxamide]",66,65
"Cc1cc2nc(N3CCC(C(=O)N[C@@H]4CCOC4)CC3)n(-c3ccc4ccccc4n3)c2cc1Cl [Example 3, (R)-1-(6-Chloro-5-methyl-1-(quinolin-2-yl)-1H-benzo[d]imidazol-2-yl)-N (tetrahydrofuran-3-yl)piperidine-4-carboxamide]",58,37
"O=C(N[C@@H]1CCOC1)C1CCN(c2nc3cc(Cl)c(Cl)cc3n2-c2ccc3cc(F)ccc3n2)CC1 [Example 10, (R)-1-(5,6-Dichloro-1-(6-fluoroquinolin-2-yl)-1H-benzo[d]imidazol-2-yl)-N-(tetrahydrofuran-3-yl)piperidine-4-carboxamide]",61,42
"O=C(N[C@@H]1CCOC1)C1CCN(c2nc3cc(Cl)c(Cl)cc3n2-c2ccc3ccccc3n2)CC1 [Example 1, (R)-1-(5,6-Dichloro-1-(quinolin-2-yl)-1H-benzo[d]imidazol-2-yl)-N-(tetrahydrofuran-3-yl)piperidine-4-carboxamide]",43,–
"Cc1cc2c(cc1Cl)nc(N1CCC(C(=O)N[C@@H]3CCOC3)CC1)n2-c1ccc2cc(F)ccc2n1 [Example 11, (R)-1-(5-Chloro-1-(6-fluoroquinolin-2-yl)-6-methyl-1H-benzo[d]imidazol-2-yl)-N-(tetrahydrofuran-3-yl)piperidine-4-carboxamide]",16,47
"Cc1cc2nc(N3CCC(C(=O)N[C@@H]4CCOC4)CC3)n(-c3ccc4cc(Cl)ccc4n3)c2cc1C [Example 6, (R)-1-(1-(6-Chloroquinolin-2-yl)-5,6-dimethyl-1H-benzo[d]imidazol-2-yl)-N-(tetrahydrofuran-3-yl)piperidine-4-carboxamide]",50,58
"O=C(N[C@@H]1CCOC1)C1CCN(c2nc3cc(Cl)c(Cl)cc3n2-c2ccc3cc(Cl)ccc3n2)CC1 [Example 4, (R)-1-(5,6-Dichloro-1-(6-chloroquinolin-2-yl)-1H-benzo[d]imidazol-2-yl)-N-(tetrahydrofuran-3-yl)piperidine-4-carboxamide]",44,35
"O=C(N[C@@H]1CCOC1)C1CCN(c2nc3cc(Cl)c(Cl)cc3n2-c2ccccn2)CC1 [Example 16, (R)-1-(5,6-dichloro-1-(pyridin-2-yl)-1H-benzo[d]imidazol-2-yl)-N-(tetrahydrofuran-3-yl)piperidine-4-carboxamide]",–,150
"O=C(N[C@@H]1CCOC1)C1CCN(c2nc3cc(Cl)c(Cl)cc3n2-c2ccc3cccc(Cl)c3n2)CC1 [Example 5, (R)-1-(5,6-Dichloro-1-(8-chloroquinolin-2-yl)-1H-benzo[d]imidazol-2-yl)-N-(tetrahydrofuran-3-yl)piperidine-4-carboxamide]",4,34

# Continued, values first:
IC50 (cellular PGE2 synthesis) [nM],IC50 (human mPGEs-1) [nM],Structure (SMILES)
24,26,"Cc1cc2nc(N3CCC(C(=O)N[C@@H]4CCOC4)CC3)n(-c3ccc4cc(F)ccc4n3)c2cc1Cl [Example 12, (R)-1-(6-Chloro-1-(6-fluoroquinolin-2-yl)-5-methyl-1H-benzo[d]imidazol-2-yl)-N-(tetrahydrofuran-3-yl)piperidine-4-carboxamide]"
58,25,"Cc1cc2c(cc1Cl)nc(N1CCC(C(=O)N[C@@H]3CCOC3)CC1)n2-c1ccc2ccccc2n1 [Example 2, (R)-1-(5-Chloro-6-methyl-1-(quinolin-2-yl)-1H-benzo[d]imidazol-2-yl)-N-(tetrahydrofuran-3-yl)piperidine-4-carboxamide]"
30,32,"Cc1cc(-n2c(N3CCC(C(=O)N[C@@H]4CCOC4)CC3)nc3cc(Cl)c(Cl)cc32)nc2ccccc12 [Example 7, (R)-1-(5,6-Dichloro-1-(4-methylquinolin-2-yl)-1H-benzo[d]imidazol-2-yl)-N-(tetrahydrofuran-3-yl)piperidine-4-carboxamide]"
–,30,"O=C(N[C@@H]1CCOC1)C1CCN(c2nc3cc(Cl)c(Cl)cc3n2-c2ccc3cccc(F)c3n2)CC1 [Example 13, (R)-1-(5,6-Dichloro-1-(8-fluoroquinolin-2-yl)-1H-benzo[d]imidazol-2-yl)-N-(tetrahydrofuran-3-yl)piperidine-4-carboxamide]"
–,21,"O=C(N[C@@H]1CCOC1)C1CCN(c2nc3cc(Cl)c(Cl)cc3n2-c2cc3ccccc3cn2)CC1 [Example 14, (R)-1-(5,6-Dichloro-1-(isoquinolin-3-yl)-1H-benzo[d]imidazol-2-yl)-N-(tetrahydrofuran-3-yl)piperidine-4-carboxamide]"
40,31,"Cc1cc2c(cc1Cl)nc(N1CCC(C(=O)N[C@@H]3CCOC3)CC1)n2-c1ccc2cc(Cl)ccc2n1 [Example 8, (R)-1-(5-Chloro-1-(6-chloroquinolin-2-yl)-6-methyl-1H-benzo[d]imidazol-2-yl)-N-(tetrahydrofuran-3-yl)piperidine-4-carboxamide]"
